This test has as its target T1, rat metabotropic glutamate receptor 5 (mGluR5) (Rattus norvegicus, UniProt P31424).
T1 construct: expressed in transfected cells; host or cells: HEK 293
The experiment in a line: Calcium mobilization assay (FLIPR) for negative or positive allosteric activity, HEK 293 cells. Particulars: for Emax: HEK293, negative allosteric modulation, inhibition of EC80 glutamate response, read-out: FLIPR maximum inhibition. The test is classed as cell-based. The essentials: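 HEK 293 cells stably expressing rat mGluR5, Fluo-4 loaded in HEPES-buffered HBSS pH 7.4 with 0.1% BSA and probenecid. Compound added with EC20 (potentiation) or EC80 (inhibition) glutamate; fluorescence read over 3 min at room temperature. Basal-subtracted maximum fluorescence change fitted to Hill equation.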

Setting [1] is: positive modulation, increase in EC20 glutamate response.

T1 sequence (P31424 21-1171 isoform P31424-2 limits assumed): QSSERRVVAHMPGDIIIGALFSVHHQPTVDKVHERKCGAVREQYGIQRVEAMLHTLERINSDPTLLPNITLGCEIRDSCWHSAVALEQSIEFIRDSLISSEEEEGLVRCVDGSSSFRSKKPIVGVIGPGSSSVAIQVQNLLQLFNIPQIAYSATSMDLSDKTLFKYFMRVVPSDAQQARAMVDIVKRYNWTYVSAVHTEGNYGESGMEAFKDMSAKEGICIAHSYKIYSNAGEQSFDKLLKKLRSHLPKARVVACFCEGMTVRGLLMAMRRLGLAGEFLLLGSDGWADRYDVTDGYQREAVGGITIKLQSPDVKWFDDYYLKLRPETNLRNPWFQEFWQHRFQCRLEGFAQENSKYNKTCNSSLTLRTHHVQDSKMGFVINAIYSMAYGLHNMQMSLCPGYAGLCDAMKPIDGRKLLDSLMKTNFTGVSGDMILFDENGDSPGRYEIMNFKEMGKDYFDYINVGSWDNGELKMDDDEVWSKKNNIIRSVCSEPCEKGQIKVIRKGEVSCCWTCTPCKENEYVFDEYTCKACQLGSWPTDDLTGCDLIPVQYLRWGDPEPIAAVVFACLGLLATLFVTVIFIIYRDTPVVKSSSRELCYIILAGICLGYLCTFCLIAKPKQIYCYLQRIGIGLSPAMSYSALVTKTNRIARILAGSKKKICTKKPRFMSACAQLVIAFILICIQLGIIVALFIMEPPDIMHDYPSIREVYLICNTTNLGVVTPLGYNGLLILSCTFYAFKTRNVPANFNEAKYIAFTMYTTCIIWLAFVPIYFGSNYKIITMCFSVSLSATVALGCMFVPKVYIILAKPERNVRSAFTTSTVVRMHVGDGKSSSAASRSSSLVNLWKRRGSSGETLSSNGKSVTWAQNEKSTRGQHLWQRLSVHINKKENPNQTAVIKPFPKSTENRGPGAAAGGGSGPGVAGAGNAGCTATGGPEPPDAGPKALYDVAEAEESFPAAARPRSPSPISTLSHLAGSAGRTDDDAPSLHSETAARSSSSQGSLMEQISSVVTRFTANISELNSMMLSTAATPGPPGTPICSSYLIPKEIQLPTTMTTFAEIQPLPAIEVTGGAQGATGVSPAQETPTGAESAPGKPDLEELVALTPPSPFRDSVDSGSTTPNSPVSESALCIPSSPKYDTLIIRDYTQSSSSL

For `Cc1cccc(C(=O)NC23CC4CC(C2)CC(NC(=O)c2cncc(C)n2)(C4)C3)n1` [Example 21, 6-Methyl-pyrazine-2-carboxylic acid {3-[(6-methyl-pyridine-2-carbonyl)-amino]-adamantan-1-yl}-amide], the Emax fell in the range of 63 to 99%.
On to `Cc1cccc(C(=O)NC23CC4CC(C2)CC(NC(=O)c2ncccc2F)(C4)C3)n1` [Example 129, 6-Methyl-pyridine-2-carboxylic acid {3-[(3-fluoro-pyridine-2-carbonyl)-amino]-adamantan-1-yl}-amide], for which the Emax lay within 70 to 99%.
In the case of `O=C(NC12CC3CC(C1)CC(NC(=O)c1cccc(N4CCC(O)C4)n1)(C3)C2)c1ccccn1` (stereo not drawn) [Example 201, 6-(3-Hydroxy-pyrrolidin-1-yl)-pyridine-2-carboxylic acid {3-[(pyridine-2-carbonyl)-amino]-adamantan-1-yl}-amide], the Emax was 63 to 99%.
`O=C(NC12CC3CC(C1)CC(NC(=O)c1cccc(NCCO)n1)(C3)C2)c1cccc(F)c1` [Example 212, 6-(2-Hydroxy-ethylamino)-pyridine-2-carboxylic acid [3-(3-fluoro-benzoylamino)-adamantan-1-yl]-amide]: the Emax fell in the range of 63 to 99%.
In the case of `O=C(NC12CC3CC(C1)CC(NC(=O)c1cccc(-n4ccnc4)n1)(C3)C2)c1ccccn1` [Example 253, 6-Imidazol-1-yl-pyridine-2-carboxylic acid {3-[(pyridine-2-carbonyl)-amino]-adamantan-1-yl}-amide], the Emax lay in the range of 63 to 99%.
Consider `Cc1cccc(C(=O)NC23CC4CC(C2)CC(NC(=O)c2cccc(N5CCC[C@H]5C(N)=O)n2)(C4)C3)n1` [Example 239, 6-((S)-2-Carbamoyl-pyrrolidin-1-yl)-pyridine-2-carboxylic acid {3-[(6-methyl-pyridine-2-carbonyl)-amino]-adamantan-1-yl}-amide], for which the Emax was in the range of 63 to 99%.
Regarding `Cc1cccc(C(=O)NC23CC4CC(C2)CC(NC(=O)c2cccc(N5CCC(O)C5)n2)(C4)C3)n1` (stereo not drawn) [Example 205, 6-(3-Hydroxy-pyrrolidin-1-yl)-pyridine-2-carboxylic acid{3-[(6-methyl-pyridine-2-carbonyl)-amino]-adamantan-1-yl}-amide], the Emax is 63 to 99%.
In the case of `Cc1ccc2nc(C(=O)NC34CC5CC(CC(NC(=O)c6ccccn6)(C5)C3)C4)cn2c1` [Example 90, 6-Methyl-imidazo[1,2-a]pyridine-2-carboxylic acid {3-[(pyridine-2-carbonyl)-amino]-adamantan-1-yl}-amide], the Emax is 63 to 99%.
As for `Cc1cccc(C(=O)NC23CC4CC(CC(NC(=O)c5cccc(C#N)c5)(C4)C2)C3)n1` [Example 32, 6-Methyl-pyridine-2-carboxylic acid [3-(3-cyano-benzoylamino)-adamantan-1-yl]-amide], the Emax was in the range of 63 to 99%.
Take `Cc1cncc(C(=O)NC23CC4CC(CC(NC(=O)c5cc(F)ccn5)(C4)C2)C3)n1` [Example 171, 6-Methyl-pyrazine-2-carboxylic acid {3-[(4-fluoro-pyridine-2-carbonyl)-amino]-adamantan-1-yl}-amide]: the Emax lay within 63 to 99%.
As for `COc1cccc(C(=O)NC23CC4CC(CC(NC(=O)c5cncc(C)n5)(C4)C2)C3)n1` [Example 151, 6-Methyl-pyrazine-2-carboxylic acid {3-[(6-methoxy-pyridine-2-carbonyl)-amino]-adamantan-1-yl}-amide], the Emax fell in the range of 70 to 99%.
Still for that read-out and setting: the value for `O=C(NC12CC3CC(C1)CC(NC(=O)c1cccc(N4CCCC4)n1)(C3)C2)c1ccccn1` [Example 61, 6-Pyrrolidin-1-yl-pyridine-2-carboxylic acid {3-[(pyridine-2-carbonyl)-amino]-adamantan-1-yl}-amide] was 63 to 99%; that for `O=C(NC12CC3CC(C1)CC(NC(=O)c1cccc(N4CCC[C@H]4CO)n1)(C3)C2)c1ccccn1` [Example 228, 6-((S)-2-Hydroxymethyl-pyrrolidin-1-yl)-pyridine-2-carboxylic acid {3-[(pyridine-2-carbonyl)-amino]-adamantan-1-yl}-amide] was 63 to 99%; that for `O=C(NC12CC3CC(C1)CC(NC(=O)c1cnccn1)(C3)C2)c1ccnc(Br)c1` [Example 186, Pyrazine-2-carboxylic acid {3-[(2-bromo-pyridine-4-carbonyl)-amino]-adamantan-1-yl}-amide] was 63 to 99%.
Turning to `Cn1ccc(C(=O)NC23CC4CC(CC(NC(=O)c5ccccn5)(C4)C2)C3)n1` [Example 76, Pyridine-2-carboxylic acid {3-[(1-methyl-1H-pyrazole-3-carbonyl)-amino]-adamantan-1-yl}-amide], the Emax lay in the range of 63 to 99%.
For the compound `O=C(NC12CC3CC(C1)CC(NC(=O)c1cccc(N4CCC(O)CC4)n1)(C3)C2)c1cccc(F)c1` [Example 218, 4-Hydroxy-3,4,5,6-tetrahydro-2H-[1,2′]-bipyridinyl-6′-carboxylic acid [3-(3-fluoro-benzoylamino)-adamantan-1-yl]-amide], the Emax is 63 to 99%.
As to `CN(C)CCN(C)c1cccc(C(=O)NC23CC4CC(CC(NC(=O)c5ccccn5)(C4)C2)C3)n1` [Example 227, 6-[(2-Dimethylamino-ethyl)-methyl-amino]-pyridine-2-carboxylic acid {3-[(pyridine-2-carbonyl)-amino]-adamantan-1-yl}-amide], the Emax was in the range of 63 to 99%.
As to `Cc1cccc(C(=O)NC23CC4CC(CC(NC(=O)c5cc(C6CC6)on5)(C4)C2)C3)n1` [Example 26, 6-Methyl-pyridine-2-carboxylic acid {3-[(5-cyclopropyl-isoxazole-3-carbonyl)-amino]-adamantan-1-yl}-amide], the Emax is 63 to 99%.
As for `Cc1cccc(C(=O)NC23CC4CC(C2)CC(NC(=O)c2cccc(-n5ccnc5)n2)(C4)C3)n1` [Example 254, 6-Imidazol-1-yl-pyridine-2-carboxylic acid {3-[(6-methyl-pyridine-2-carbonyl)-amino]-adamantan-1-yl}-amide], the Emax is 63 to 99%.
With `Cc1cccc(C(=O)NC23CC4CC(C2)CC(NC(=O)c2cccc(N(C)CCO)n2)(C4)C3)n1` [Example 209, 6-[(2-Hydroxy-ethyl)-methyl-amino]-pyridine-2-carboxylic acid {3-[(6-methyl-pyridine-2-carbonyl)-amino]-adamantan-1-yl}-amide], the Emax lay in the range of 63 to 99%.
Consider `Cc1cccc(C(=O)NC23CC4CC(CC(NC(=O)c5cccc(N(C)C)c5)(C4)C2)C3)n1` [Example 114, 6-Methyl-pyridine-2-carboxylic acid [3-(3-dimethyl-amino-benzoylamino)-adamantan-1-yl]-amide], for which the Emax lay in the range of 70 to 99%.
In the case of `Cc1cccc(C(=O)NC23CC4CC(C2)CC(NC(=O)c2nc5ccccc5s2)(C4)C3)n1` [Example 36, Benzothiazole-2-carboxylic acid {3-[(6-methyl-pyridine-2-carbonyl)-amino]-adamantan-1-yl}-amide], the Emax was 63 to 99%.
As for `Cc1cccc(C(=O)NC23CC4CC(CC(NC(=O)c5cc(C)on5)(C4)C2)C3)n1` [Example 39, 6-Methyl-pyridine-2-carboxylic acid {3-[(5-methyl-isoxazole-3-carbonyl)-amino]-adamantan-1-yl}-amide], the Emax is 63 to 99%.
Consider `Cc1cncc(C(=O)NC23CC4CC(CC(NC(=O)c5cc(Br)ccn5)(C4)C2)C3)n1` [Example 176, 6-Methyl-pyrazine-2-carboxylic acid {3-[(4-bromo-pyridine-2-carbonyl)-amino]-adamantan-1-yl}-amide], for which the Emax fell in the range of 63 to 99%.
As a reminder, the EC50 is the concentration needed to bring the measured effect to its halfway point. `Cc1cncc(C(=O)NC23CC4CC(CC(NC(=O)c5cc(-c6ccccc6)ncn5)(C4)C2)C3)n1` [Example 257, 6-Phenyl-pyrimidine-4-carboxylic acid {3-[(6-methyl-pyrazine-2-carbonyl)-amino]-adamantan-1-yl}-amide]: under setting [1], the EC50 was found to be 830 nM and the maximum modulation is 120%.
As to `Cc1cccc(C(=O)NC23CC4CC(C2)CC(NC(=O)c2ccc5cccnc5n2)(C4)C3)n1` [Example 27, [1,8]Naphthyridine-2-carboxylic acid {3-[(6-methyl-pyridine-2-carbonyl)-amino]-adamantan-1-yl}-amide], the Emax lay within 63 to 99%.
Still for that read-out and setting: the value for `COc1cccc(C(=O)NC23CC4CC(CC(NC(=O)c5ccccn5)(C4)C2)C3)n1` [Example 68, 6-Methoxy-pyridine-2-carboxylic acid {3-[(pyridine-2-carbonyl)-amino]-adamantan-1-yl}-amide] was 63 to 99%.
Take `Cc1ccnc(C(=O)NC23CC4CC(CC(NC(=O)c5ccnc(C)n5)(C4)C2)C3)n1` [Example 193, 2-Methyl-pyrimidine-4-carboxylic acid {3-[(4-methyl-pyrimidine-2-carbonyl)-amino]-adamantan-1-yl}-amide]: the Emax was 63 to 99%.
For the compound `Cc1cccc(C(=O)NC23CC4CC(C2)CC(NC(=O)c2cccc(N5CCC[C@H]5CO)n2)(C4)C3)n1` [Example 237, 6-((S)-2-Hydroxymethyl-pyrrolidin-1-yl)-pyridine-2-carboxylic acid {3-[(6-methyl-pyridine-2-carbonyl)-amino]-adamantan-1-yl}-amide], the Emax lay in the range of 63 to 99%.
With `Cc1cncc(C(=O)NC23CC4CC(C2)CC(NC(=O)c2ncccc2C)(C4)C3)n1` [Example 168, 6-Methyl-pyrazine-2-carboxylic acid {3-[(3-methyl-pyridine-2-carbonyl)-amino]-adamantan-1-yl}-amide], the Emax lay within 63 to 99%.
Consider `Cc1cccc(C(=O)NC23CC4CC(C2)CC(NC(=O)c2cccc(NCCO)n2)(C4)C3)n1` [Example 208, 6-(2-Hydroxy-ethylamino)-pyridine-2-carboxylic acid {3-[(6-methyl-pyridine-2-carbonyl)-amino]-adamantan-1-yl}-amide], for which the Emax was in the range of 63 to 99%.
With `Cc1cccc(C(=O)NC23CC4CC(C2)CC(NC(=O)c2ccno2)(C4)C3)n1` [Example 31, 6-Methyl-pyridine-2-carboxylic acid {3-[(isoxazole-5-carbonyl)-amino]-adamantan-1-yl}-amide], the Emax was in the range of 63 to 99%.

The values are drawn from US8716284B2, “Adamantyl diamide derivatives and uses of same” (H. Lundbeck A/S, priority 2008, dated 2014).
